According to PubChem BioAssay AID248 (DTP/NCI, 2004):
Toxic doses and inconclusive results are not listed. Rule as the data show it: active = T/C of 150% or more; inactive = T/C below 125%.

System: L1210 leukemia ip in BDF1 mice, survival T/C
Experiment: NCI In Vivo Anticancer Drug Screen. Data for tumor model L1210 Leukemia (intraperitoneal) in B6D2F1 (BDF1) mice
Conditions: endpoint: mean survival time, higher = longer survival
In short: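 Read-out is survival time, reported as the treated-group measurement over the vehicle-control measurement.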

[1] = dose: 100.0 mg/kg/injection, schedule: Q04DX003 (ip), vehicle: saline
[2] = dose: 200.0 mg/kg/injection, schedule: Q04DX003 (ip), vehicle: saline
[3] = dose: 100.0 mg/kg/injection, schedule: Q04DX003 (ip), vehicle: saline with Tween-80
[4] = dose: 200.0 mg/kg/injection, schedule: Q04DX003 (ip), vehicle: saline with Tween-80
[5] = dose: 400.0 mg/kg/injection, schedule: Q04DX003 (ip), vehicle: saline with Tween-80
[6] = dose: 100.0 mg/kg/injection, schedule: Q04DX003 (ip), vehicle: Klucel (hydroxypropylcellulose) (HPC)
[7] = dose: 100.0 mg/kg/injection, schedule: Q01DX001 (ip), vehicle: Klucel (hydroxypropylcellulose) (HPC)
[8] = dose: 200.0 mg/kg/injection, schedule: Q04DX002 (ip), vehicle: saline
[9] = dose: 100.0 mg/kg/injection, schedule: Q01DX001 (ip), vehicle: saline
[10] = dose: 100.0 mg/kg/injection, schedule: Q01DX005 (ip), vehicle: saline
[11] = dose: 200.0 mg/kg/injection, schedule: Q01DX005 (ip), vehicle: saline
[12] = dose: 10.0 mg/kg/injection, schedule: Q01DX001 (ip), vehicle: saline
[13] = dose: 20.0 mg/kg/injection, schedule: Q01DX001 (ip), vehicle: saline
[14] = dose: 40.0 mg/kg/injection, schedule: Q01DX001 (ip), vehicle: saline

Measured: T/C

C[N+](C)(C)CCOC(=O)c1cccc(CBr)c1
inactive: dose: 50.0 mg/kg/injection, schedule: Q01DX009 (ip), vehicle: saline 92 % of control | dose: 100.0 mg/kg/injection, schedule: Q01DX009 (ip), vehicle: saline 95 % of control | [1] 98 % of control | dose: 200.0 mg/kg/injection, schedule: Q01DX009 (ip), vehicle: saline 93 % of control | [2] 105 % of control

Cc1ccc(S(=O)(=O)N(C)c2ccc(C(=O)O)c3ccccc23)cc1
inactive: [3] 105 % of control | [4] 97 % of control | [5] 100 % of control

CC(=O)c1cc(C)c(O)cc1C
inactive: dose: 100.0 mg/kg/injection, schedule: Q04DX002 (ip), vehicle: saline with Tween-80 103 % of control | dose: 200.0 mg/kg/injection, schedule: Q04DX002 (ip), vehicle: saline with Tween-80 92 % of control | dose: 400.0 mg/kg/injection, schedule: Q04DX002 (ip), vehicle: saline with Tween-80 111 % of control

CC(=O)Nc1cccc2c1C(=O)c1ccccc1-2
inactive: [3] 102 % of control | [4] 112 % of control | [5] 102 % of control

Nc1ncnc(N)c1NC(=O)CCCc1ccccc1
inactive: [6] 86 % of control | dose: 200.0 mg/kg/injection, schedule: Q04DX003 (ip), vehicle: Klucel (hydroxypropylcellulose) (HPC) 92 % of control

CCCCCCCCCCCCCCCCCc1c(Cl)c(Cl)c(Cl)c(Cl)c1Cl
inactive: [7] 90 % of control

Cc1cc(C)c(C2CC3CCC2C3)cc1N (stereo not given)
inactive: dose: 25.0 mg/kg/injection, schedule: Q04DX002 (ip), vehicle: Klucel (hydroxypropylcellulose) (HPC) 100 % of control | dose: 50.0 mg/kg/injection, schedule: Q04DX002 (ip), vehicle: Klucel (hydroxypropylcellulose) (HPC) 100 % of control | dose: 100.0 mg/kg/injection, schedule: Q04DX002 (ip), vehicle: Klucel (hydroxypropylcellulose) (HPC) 100 % of control | [6] 90 % of control | [8] 96 % of control

COc1ccc(Cc2ccc3[nH]c(=O)cc(C)c3c2)cc1S(=O)(=O)O
inactive: [9] 104 % of control | dose: 200.0 mg/kg/injection, schedule: Q01DX001 (ip), vehicle: saline 105 % of control | dose: 400.0 mg/kg/injection, schedule: Q01DX001 (ip), vehicle: saline 94 % of control

NC(=NCc1ccccc1)c1ccc(NC(=O)c2ccc(C(=O)Nc3ccc(C(N)=NCc4ccccc4)cc3)cc2)cc1
inactive: dose: 7.0 mg/kg/injection, schedule: Q01DX Z (ip), vehicle: water 113 % of control

Nc1ncnc2c1ncn2C1C=COC(CO)C1O (stereo not given)
inactive: [10] 100 % of control | [11] 97 % of control

CC(C)OCCSP(SCCOC(C)C)SCCOC(C)C
inactive: dose: 25.0 mg/kg/injection, schedule: Q04DX003 (ip), vehicle: saline with Tween-80 96 % of control | dose: 50.0 mg/kg/injection, schedule: Q04DX003 (ip), vehicle: saline with Tween-80 107 % of control | [3] 96 % of control

O=c1[nH]nc(/C=C/c2ccccc2)o1
inactive: dose: 50.0 mg/kg/injection, schedule: Q04DX003 (ip), vehicle: saline 103 % of control | [1] 95 % of control | [2] 97 % of control

CCCC(=O)N1C(C)CCCC1C (stereo not given)
inactive: dose: 100.0 mg/kg/injection, schedule: Q04DX002 (ip), vehicle: saline 117 % of control | [8] 101 % of control | dose: 400.0 mg/kg/injection, schedule: Q04DX002 (ip), vehicle: saline 93 % of control

CC1(C)N=C(N)N=C(N)N1c1cccc(OCCCOc2ccc(N)cc2)c1
inactive: dose: 5.0 mg/kg/injection, schedule: Q01DX001 (ip), vehicle: saline 97 % of control | [12] 100 % of control | [13] 101 % of control | [14] 100 % of control

O=c1nc2n(CCN(CCO)CCO)c3cc(Cl)c(Cl)cc3nc-2c(=O)[nH]1
inactive: dose: 5.0 mg/kg/injection, schedule: Q01DX009 (ip), vehicle: saline 107 % of control | [12] 95 % of control | dose: 10.0 mg/kg/injection, schedule: Q01DX009 (ip), vehicle: saline 93 % of control | [13] 102 % of control | dose: 20.0 mg/kg/injection, schedule: Q01DX009 (ip), vehicle: saline 104 % of control | [14] 91 % of control

O=C(Nc1cccc2nsnc12)c1ccc(C(=O)Nc2cccc3nsnc23)cc1
inactive: dose: 100.0 mg/kg/injection, schedule: Q01DX001 (ip), vehicle: other 94 % of control | dose: 200.0 mg/kg/injection, schedule: Q01DX001 (ip), vehicle: other 88 % of control | dose: 400.0 mg/kg/injection, schedule: Q01DX001 (ip), vehicle: other 98 % of control

Nc1ncnc2c1c(-c1nc(=S)[nH][nH]1)cn2C1OC(CO)C(O)C1O (stereo not given)
inactive: [10] 106 % of control | [11] 108 % of control

C=C(Br)CNC(=O)C(C(F)(F)F)C(F)(F)F
inactive: dose: 12.5 mg/kg/injection, schedule: Q01DX009 (ip), vehicle: Klucel (hydroxypropylcellulose) (HPC) 95 % of control | dose: 12.5 mg/kg/injection, schedule: Q04DX003 (ip), vehicle: Klucel (hydroxypropylcellulose) (HPC) 96 % of control | dose: 25.0 mg/kg/injection, schedule: Q01DX009 (ip), vehicle: Klucel (hydroxypropylcellulose) (HPC) 97 % of control | dose: 25.0 mg/kg/injection, schedule: Q04DX003 (ip), vehicle: Klucel (hydroxypropylcellulose) (HPC) 98 % of control | dose: 50.0 mg/kg/injection, schedule: Q01DX009 (ip), vehicle: Klucel (hydroxypropylcellulose) (HPC) 95 % of control | dose: 50.0 mg/kg/injection, schedule: Q04DX003 (ip), vehicle: Klucel (hydroxypropylcellulose) (HPC) 96 % of control

CN(C)C(=S)SCC(N)=O
inactive: [7] 103 % of control | dose: 200.0 mg/kg/injection, schedule: Q01DX001 (ip), vehicle: Klucel (hydroxypropylcellulose) (HPC) 100 % of control | dose: 400.0 mg/kg/injection, schedule: Q01DX001 (ip), vehicle: Klucel (hydroxypropylcellulose) (HPC) 103 % of control

Cc1cc(C#N)cc(C)c1N
inactive: dose: 75.0 mg/kg/injection, schedule: Q01DX001 (ip), vehicle: other 100 % of control | dose: 150.0 mg/kg/injection, schedule: Q01DX001 (ip), vehicle: other 95 % of control | dose: 300.0 mg/kg/injection, schedule: Q01DX001 (ip), vehicle: other 105 % of control

C[N+]12CC3C(O)CC1CCC32 (stereo not given)
inactive: [9] 101 % of control
